The results in this text go back to patent US20260053861A1, “CELL COMPOSITIONS AND METHODS OF USING THE SAME” (THE REGENTS OF THE UNIVERSITY OF CALIFORNIA, priority 2022, published 2026).

Counter-ions that a name gives are not always drawn.

In the first assay the test system is hPSC-SCs.
Conditions: not given
In the case of `COc1cc(/C=C/C(=O)N2CCC=CC2=O)cc(OC)c1OC` [Piperlongumine], the z.score.t is −2.024.

The compound `COc1cc([C@@H]2c3cc4c(cc3[C@H](O)[C@H]3COC(=O)[C@H]23)OCO4)cc(OC)c1OC` [Podophyllotoxin] registered a z.score.t of −2.152.

For the compound `C[n+]1ccccc1/C=N/O` [Pralidoxime chloride], the z.score.t was −0.411.

`CC(C)c1cccc(C(C)C)c1O` [Propofol] gave a z.score.t of −0.411.

Compound `C[C@@H]1O[C@@H](O[C@@H]2C=C3CC[C@@H]4[C@H](CC[C@]5(C)[C@@H](c6ccc(=O)oc6)CC[C@]45O)[C@@]3(C)CC2)[C@H](O)[C@H](O)[C@H]1O` [Proscillaridin A] gave a z.score.t of −1.543.

Compound `CC[C@@H](C)C(=O)O[C@H]1[C@H](O)[C@H]2[C@@H](CN3C[C@@H](C)CC[C@H]3[C@@]2(C)O)[C@@H]2C[C@]34O[C@]5(O)[C@@H](OC(=O)[C@@](C)(O)CC)CC[C@@]3(C)[C@@H]5[C@@H](OC(C)=O)[C@@H](OC(C)=O)[C@H]4[C@@]21O` [Protoveratrine A] came in with a z.score.t of −0.3319.

Consider `CN1[C@@H]2CCC[C@H]1CC(=O)C2.Cl` [Pseudopelletierine hydrochloride], for which the z.score.t is −0.6864.

In turn, `Cc1ncc(CO)c(CO)c1O.Cl` [Pyridoxine hydrochloride] registered a z.score.t of −0.5337.

In turn, `CCC1(CC)C(=O)C=CNC1=O` [Pyrithyldione] gave a z.score.t of 0.7158.

As to `O.O.O=c1c(O)c(-c2ccc(O)c(O)c2)oc2cc(O)cc(O)c12` [Quercetine dihydrate], the z.score.t is reported as 1.371.

Still in this assay, the particulars now being: HTS viability of hPSC-SCs in the presence of 30 mM glucose; Prestwick library; Table S4.
For `NC(=O)CN1CCCC1=O` [Piracetam], the z.score.t stood at 1.595.

As to `Cc1nc2ccccn2c(=O)c1CCN1CCC(C(=O)c2ccc(F)cc2)CC1` [Pirenperone], the z.score.t was −0.07901.

On to `CN1CCN(CC(=O)N2c3ccccc3C(=O)Nc3cccnc32)CC1` [Pirenzepine dihydrochloride], for which the z.score.t is reported as −0.07933.

`NS(=O)(=O)c1cc(C(=O)O)cc(N2CCCC2)c1Oc1ccccc1` [Piretanide]: the z.score.t is −0.9376.

For the compound `c1cnc(N2CCN(Cc3ccc4c(c3)OCO4)CC2)nc1` [Piribedil hydrochloride], the z.score.t is on record as −1.291.

Take `CCn1cc(C(=O)O)c(=O)c2cnc(N3CCCC3)nc21` [Piromidic acid]: the z.score.t turned out to be 0.453.

Turning to `CN1C(C(=O)Nc2ccccn2)=C(O)c2ccccc2S1(=O)=O` [Piroxicam], the z.score.t is −0.4161.

Regarding `CC(C)(C)C(=O)OCOC(=O)[C@@H]1N2C(=O)[C@@H](NC(=O)[C@H](N)c3ccccc3)[C@H]2SC1(C)C` [Pivampicillin], the z.score.t was −0.2187.

Turning to `CC(C)(C)C(=O)OCOC(=O)[C@@H]1N2C(=O)[C@@H](/N=C/N3CCCCCC3)[C@H]2SC1(C)C` [Pivmecillinam hydrochloride], the z.score.t was 0.0827.

`CC(=O)Nc1ccc(OCC(O)CNC(C)C)cc1` (stereo not shown) [Practolol]: the z.score.t is reported as −0.3112.

In the case of `CCCCOc1ccc(OCCCN2CCOCC2)cc1` [Pramoxine hydrochloride], the z.score.t is −1.058.

With `O=C(C1CCCCC1)N1CC(=O)N2CCc3ccccc3C2C1` (stereo not shown) [Praziquantel], the z.score.t is −0.5553.

Regarding `COc1cc2nc(N3CCN(C(=O)c4ccco4)CC3)nc(N)c2cc1OC` [Prazosin hydrochloride], the z.score.t is reported as −0.496.

Turning to `CCOC(=O)O[C@]1(C(=O)COC(=O)CC)CC[C@H]2[C@@H]3CCC4=CC(=O)C=C[C@]4(C)[C@H]3[C@@H](O)C[C@@]21C` [Prednicarbate], the z.score.t is listed as −0.7266.

Take `C[C@]12C=CC(=O)C=C1CC[C@@H]1[C@@H]2[C@@H](O)C[C@@]2(C)[C@H]1CC[C@]2(O)C(=O)CO` [Prednisolone]: the z.score.t was determined as 1.287.

As to `C[C@]12C=CC(=O)C=C1CC[C@@H]1[C@@H]2C(=O)C[C@@]2(C)[C@H]1CC[C@]2(O)C(=O)CO` [Prednisone], the z.score.t is given as −0.6093.

For the compound `CC(=O)[C@H]1CC[C@H]2[C@@H]3CC=C4C[C@@H](O)CC[C@]4(C)[C@H]3CC[C@]12C` [Pregnenolone], the z.score.t was −0.6864.

Consider `CCCNC(C)C(=O)Nc1ccccc1C` (stereo not shown) [Prilocaine hydrochloride], for which the z.score.t is 1.984.

In the case of `COc1cc(NC(C)CCCN)c2ncccc2c1` (stereo not shown) [Primaquine diphosphate], the z.score.t is −1.784.

In the case of `CCC1(c2ccccc2)C(=O)NCNC1=O` [Primidone], the z.score.t was 0.2582.

As for `CCCC(C(=O)OCCN(CC)CC)(c1ccccc1)c1ccccc1` [Proadifen hydrochloride], the z.score.t is −1.138.

Regarding `CCCN(CCC)S(=O)(=O)c1ccc(C(=O)O)cc1` [Probenecid], the z.score.t is on record as −0.3319.

Consider `CC(C)(Sc1cc(C(C)(C)C)c(O)c(C(C)(C)C)c1)Sc1cc(C(C)(C)C)c(O)c(C(C)(C)C)c1` [Probucol], for which the z.score.t was determined as 0.1344.

Turning to `CCN(CC)CCNC(=O)c1ccc(N)cc1` [Procainamide hydrochloride], the z.score.t is given as −0.2904.

As to `CCN(CC)CCOC(=O)c1ccc(N)cc1` [Procaine hydrochloride], the z.score.t is recorded as 0.5587.

With `CNNCc1ccc(C(=O)NC(C)C)cc1` [Procarbazine hydrochloride], the z.score.t is given as −0.01802.

Consider `CN1CCN(CCCN2c3ccccc3Sc3ccc(Cl)cc32)CC1` [Prochlorperazine dimaleate], for which the z.score.t is on record as −0.7775.

Consider `OC(CCN1CCCC1)(c1ccccc1)C1CCCCC1` (stereo not shown) [Procyclidine hydrochloride], for which the z.score.t is reported as −0.0788.

With `CC(=O)[C@H]1CC[C@H]2[C@@H]3CCC4=CC(=O)CC[C@]4(C)[C@H]3CC[C@]12C` [Progesterone], the z.score.t turned out to be 0.1767.

For `CCCN(CCC)C(=O)C(CCC(=O)O)NC(=O)c1ccccc1` (stereo not shown) [Proglumide], the z.score.t is −0.8991.

For `[H]/N=C(\N/C(=N/[H])Nc1ccc(Cl)cc1)NC(C)C` [Proguanil hydrochloride], the z.score.t is −0.1187.

In the case of `CN(C)CCCN1c2ccccc2Sc2ccccc21` [Promazine hydrochloride], the z.score.t is −1.845.

For the compound `CC(CN1c2ccccc2Sc2ccccc21)N(C)C` (stereo not shown) [Promethazine hydrochloride], the z.score.t is 1.578.

Consider `CC(C)NCC(O)c1ccc2ccccc2c1` (stereo not shown) [Pronethalol hydrochloride], for which the z.score.t is listed as −0.4684.

In the case of `CCCNCC(O)COc1ccccc1C(=O)CCc1ccccc1` (stereo not shown) [Propafenone hydrochloride], the z.score.t amounted to 1.211.

In the case of `CC(C)[N+](C)(CCOC(=O)C1c2ccccc2Oc2ccccc21)C(C)C` [Propantheline bromide], the z.score.t was found to be 0.9525.

On to `CCCOc1ccc(C(=O)OCCN(CC)CC)cc1N` [Proparacaine hydrochloride], for which the z.score.t worked out at 0.7158.

Turning to `CC[N+](C)(CC)CCC[n+]1c(-c2ccccc2)c2cc(N)ccc2c2ccc(N)cc21.[I-].[I-]` [Propidium iodide], the z.score.t was −0.7567.

For `CCCOc1cc(N)ccc1C(=O)OCCN(CC)CC` [Propoxycaine hydrochloride], the z.score.t is recorded as −0.8229.

Regarding `CC(C)NCC(O)COc1cccc2ccccc12` (stereo not shown) [Propranolol hydrochloride], the z.score.t is −1.412.

Turning to `CCCc1cc(=O)[nH]c(=S)[nH]1` [Propylthiouracil], the z.score.t is reported as −0.2904.

As to `CNCCCC1c2ccccc2C=Cc2ccccc21` [Protriptyline hydrochloride], the z.score.t was −0.3678.

For `CC(O)Cn1cnc2c1c(=O)n(C)c(=O)n2C` (stereo not shown) [Proxyphylline], the z.score.t was −0.3023.

As to `COc1ccc(C[C@H](N)C(=O)N[C@H]2[C@@H](O)[C@H](n3cnc4c(N(C)C)ncnc43)O[C@@H]2CO)cc1` [Puromycin dihydrochloride], the z.score.t is listed as −2.056.

In the case of `NC(=O)c1cnccn1` [Pyrazinamide], the z.score.t was determined as 1.73.

For `COc1ccc(CN(CCN(C)C)c2ccccn2)cc1` [Pyrilamine maleate], the z.score.t is listed as 0.07016.

As to `CCc1nc(N)nc(N)c1-c1ccc(Cl)cc1` [Pyrimethamine], the z.score.t was determined as 0.5856.

On to `CCN(CC)CCCC(C)Nc1c2ccc(Cl)cc2nc2ccc(OC)cc12` (stereo not shown) [Quinacrine dihydrochloride dihydrate], for which the z.score.t was −1.898.

For `CCOC(=O)[C@H](CCc1ccccc1)N[C@@H](C)C(=O)N1Cc2ccccc2C[C@H]1C(=O)O` [Quinapril HCl], the z.score.t was −0.1464.

On to `CCC1NC(=O)c2cc(S(N)(=O)=O)c(Cl)cc2N1` (stereo not shown) [Quinethazone], for which the z.score.t was −0.9264.

Turning to `O=C(O)[C@]1(O)C[C@@H](O)[C@@H](O)[C@H](O)C1` [Quinic acid], the z.score.t was 0.5268.

On to `C=C[C@H]1C[N@@]2CC[C@H]1C[C@@H]2[C@@H](O)c1ccnc2ccc(OC)cc12` [Quinidine hydrochloride monohydrate], for which the z.score.t was −0.6093.

With `CC(=O)SCC(Cc1ccccc1)C(=O)NCC(=O)OCc1ccccc1` (stereo not shown) [Racecadotril], the z.score.t is recorded as −0.1853.

As to `O=C(c1ccc(OCCN2CCCCC2)cc1)c1c(-c2ccc(O)cc2)sc2cc(O)ccc12` [Raloxifene hydrochloride], the z.score.t is on record as −1.825.

With `CCOC(=O)[C@H](CCc1ccccc1)N[C@@H](C)C(=O)N1[C@H](C(=O)O)C[C@@H]2CCC[C@@H]21` [Ramipril], the z.score.t is −0.5351.

In the case of `CNC(=C[N+](=O)[O-])NCCSCc1ccc(CN(C)C)o1` [Ranitidine hydrochloride], the z.score.t is listed as 0.4486.

As for `COc1ccccc1OCC(O)CN1CCN(CC(=O)Nc2c(C)cccc2C)CC1` (stereo not shown) [Ranolazine], the z.score.t came to 1.442.

For `COC(=O)[C@H]1[C@H]2C[C@H]3c4[nH]c5ccccc5c4CCN3C[C@H]2CC[C@@H]1O` [Rauwolscine hydrochloride], the z.score.t stood at 1.384.

As for `CCN1CCC[C@H]1CNC(=O)c1c(OC)ccc(Br)c1OC` [Remoxipride Hydrochloride], the z.score.t stood at 0.05395.

With `CCOc1cc(CC(=O)N[C@@H](CC(C)C)c2ccccc2N2CCCCC2)ccc1C(=O)O` [Repaglinide], the z.score.t is −1.216.
